The record followed here is ChEMBL document CHEMBL1157929, “Thioether benzenesulfonamide inhibitors of carbonic anhydrases II and IV: structure-based drug design, synthesis, and biological evaluation” (Bioorg Med Chem, 2010).

Converted amounts (≈) assume the structure as drawn.

The first series can be described thus: physchem. Particulars: buffer, pH 6.5.
In turn, `NS(=O)(=O)c1ccc(Sc2c(F)c(F)cc(F)c2F)nc1` gave a solubility (thermodynamic) at 4 h of 231 µM (≈ 78.1 µg/mL).
In the case of `NCCCCNC(=O)c1cc(S(N)(=O)=O)cnc1Sc1c(F)c(F)cc(F)c1F`, the solubility (thermodynamic) at 4 h is 3090 µM (≈ 1400 µg/mL).
Turning to `CCNC(=O)c1cc(S(N)(=O)=O)cc(F)c1SCC(C)C`, the thermodynamic solubility at 4 h came out at 395 µM (≈ 132 µg/mL).
The same measure, in the same setting: next, `COCCCNC(=O)c1cc(S(N)(=O)=O)cnc1Sc1c(F)c(F)cc(F)c1F`: 124 µM (≈ 56.2 µg/mL).

Another series is described as follows: Solubility at pH 6.5 after 24 hrs by chemiluminescence assay. The format is physicochemical. Particulars: buffer.
Turning to `COCCNC(=O)c1cc(S(N)(=O)=O)cnc1Sc1ccccc1`, the solubility at 24 h stood at 35.6 µM (≈ 13.1 µg/mL).
On the same count and under the same terms, with `COCCCNC(=O)c1cc(S(N)(=O)=O)cnc1Sc1ccc(F)c(F)c1` the figure was 40.9 µM (≈ 17.1 µg/mL); with `COCCCNC(=O)c1cc(S(N)(=O)=O)cnc1Sc1cccc(F)c1`, 89.6 µM (≈ 35.8 µg/mL); with `NS(=O)(=O)c1ccc(SCc2ccccc2)c(C(=O)NCc2ccccc2)c1`, less than 24.2 µM.
Turning to `NS(=O)(=O)c1cnc(Sc2c(F)c(F)cc(F)c2F)c(C(=O)NCc2ccccn2)c1`, the solubility at 24 h was less than 21.2 µM.
Take `NS(=O)(=O)c1ccc(Sc2ccccc2)c(C(=O)NCc2ccccc2)c1`: the solubility at 24 h was less than 25.1 µM.
On to `NS(=O)(=O)c1ccc(Sc2c(F)c(F)cc(F)c2F)nc1`, for which the concentration in solution (solubility at 24 h) came to 558 µM (≈ 189 µg/mL).
In turn, `COc1ccc(CCCNC(=O)c2cc(S(N)(=O)=O)cnc2Sc2c(F)c(F)cc(F)c2F)cc1` displayed a solubility at 24 h of less than 19 µM.
The compound `CCNC(=O)c1cc(S(N)(=O)=O)cnc1Sc1ccccc1` came in with a solubility at 24 h of 118 µM (≈ 39.8 µg/mL).
`NS(=O)(=O)c1ccc(Sc2ccccc2CO)c(C(=O)NCc2ccccn2)c1` gave a solubility at 24 h of more than 258 µM.
`NS(=O)(=O)c1cnc(Sc2ccc(F)c(F)c2)c(CO)c1` had a solubility at 24 h of more than 353 µM.
For the compound `NCCCCNC(=O)c1cc(S(N)(=O)=O)cnc1Sc1c(F)c(F)cc(F)c1F`, the solubility at 24 h was more than 265 µM.
In turn, `NS(=O)(=O)c1ccc(Sc2ccccn2)c(C(=O)NCc2ccccn2)c1` yielded a solubility at 24 h of more than 253 µM.
Consider `CCNC(=O)c1cc(S(N)(=O)=O)cc(F)c1SCC(C)C`, for which the solubility at 24 h came to 553 µM (≈ 185 µg/mL).
Compound `COc1ccc(CNC(=O)c2cc(S(N)(=O)=O)cnc2Sc2ccc(F)c(F)c2)cc1` had a solubility at 24 h of less than 19.9 µM.
With `CCNC(=O)c1cc(S(N)(=O)=O)cc(F)c1SC(C)C`, the solubility at 24 h stood at 498 µM (≈ 160 µg/mL).
Compound `NS(=O)(=O)c1ccc(Sc2ccccc2)c(C(=O)NCc2ccccn2)c1` registered a solubility at 24 h of more than 275 µM.
Same read-out and setting: next, `NS(=O)(=O)c1ccc(Sc2c(F)c(F)cc(F)c2F)c(C(=O)NCCc2ccccn2)c1`: 211 µM (≈ 102 µg/mL); `COCCCNC(=O)c1cc(S(N)(=O)=O)cnc1Sc1c(F)c(F)cc(F)c1F`: 214 µM (≈ 97 µg/mL); `CCNC(=O)c1cc(S(N)(=O)=O)ccc1SC1CCCC1`: 628 µM (≈ 206 µg/mL).
`CC(C)CNC(=O)c1cc(S(N)(=O)=O)ccc1SC(C)C` displayed a solubility at 24 h of 689 µM (≈ 228 µg/mL).
Consider `CCNC(=O)c1cc(S(N)(=O)=O)cnc1Sc1cccc(F)c1`, for which the solubility at 24 h amounted to 43.2 µM (≈ 15.4 µg/mL). This solubility at 24 h is about 16-fold lower than that of the compound before.
As for `NS(=O)(=O)c1ccc(Oc2ccccc2)c(C(=O)NCc2ccccc2)c1`, the concentration in solution (solubility at 24 h) was 28.5 µM (≈ 10.9 µg/mL).
The compound `CCNCc1cc(S(N)(=O)=O)cnc1Sc1ccc(F)c(F)c1` came in with a solubility at 24 h of 449 µM (≈ 161 µg/mL).
The same measure, in the same setting: next, `COCCCNC(=O)c1cc(S(N)(=O)=O)cnc1Sc1ccccc1`: more than 287 µM.
For `COCCNC(=O)c1cc(S(N)(=O)=O)ccc1SCCc1ccccc1`, the solubility at 24 h is more than 304 µM.
Take `COCCCNCc1cc(S(N)(=O)=O)cnc1Sc1ccc(F)c(F)c1`: the solubility at 24 h is 497 µM (≈ 201 µg/mL).
`NS(=O)(=O)c1ccc(S(=O)(=O)c2ccccc2)c(C(=O)NCc2ccccc2)c1` yielded a solubility at 24 h of 55.9 µM (≈ 24.1 µg/mL).
With `CCNC(=O)c1cc(S(N)(=O)=O)ccc1Sc1ccccc1`, the concentration in solution (solubility at 24 h) came to 205 µM (≈ 69 µg/mL). This solubility at 24 h is about 3.7-fold higher than that of the compound before.
`CCCNC(=O)c1cc(S(N)(=O)=O)cnc1Sc1ccccc1` yielded a solubility at 24 h of 156 µM (≈ 54.8 µg/mL). This solubility at 24 h and that of the compound before are within 1.5-fold of each other.
Take `CN(C)CCNC(=O)c1cc(S(N)(=O)=O)cnc1Sc1ccccc1`: the solubility at 24 h was more than 265 µM.
Compound `NS(=O)(=O)c1cnc(Sc2ccccc2)c(C(=O)NCCc2ccccc2)c1` showed a solubility at 24 h of less than 22.2 µM.

One may read the thermodynamic solubility as the concentration in solution at equilibrium with solid. By solubility is commonly meant how much of the substance goes into solution per volume.
